The nature of series [1]: on-resin intramolecular Suzuki-Miyaura biaryl stapling (i,i+4) between 6- or 7-bromo-Trp and aryl boronic acid/Bpin side chain; Pd2(dba)3 0.2 eq, sSPhos 0.4 eq, KF 4 eq, microwave 120 C 30 min; then TFA/TIS/H2O cleavage. To be noted: the molecule shown is the open-chain precursor, DME/EtOH/H2O 9:9:2, 16.7 mM, 0.5 h.
Assay in series [2]: not given
This is another data set of the same source.

Assay in series [3]: not given
This is another data set of the same source.

Series [4] concerns Proteinase K. The experiment in a line: Proteinase K (2.5 µg mL−1) in Na2HPO4 buffer (100 mM, pH 7.4). To be noted: 25 °C, up to 120 min.
In series [5] the target is T1, β-catenin (Homo sapiens, UniProt P35222).
T1 chain: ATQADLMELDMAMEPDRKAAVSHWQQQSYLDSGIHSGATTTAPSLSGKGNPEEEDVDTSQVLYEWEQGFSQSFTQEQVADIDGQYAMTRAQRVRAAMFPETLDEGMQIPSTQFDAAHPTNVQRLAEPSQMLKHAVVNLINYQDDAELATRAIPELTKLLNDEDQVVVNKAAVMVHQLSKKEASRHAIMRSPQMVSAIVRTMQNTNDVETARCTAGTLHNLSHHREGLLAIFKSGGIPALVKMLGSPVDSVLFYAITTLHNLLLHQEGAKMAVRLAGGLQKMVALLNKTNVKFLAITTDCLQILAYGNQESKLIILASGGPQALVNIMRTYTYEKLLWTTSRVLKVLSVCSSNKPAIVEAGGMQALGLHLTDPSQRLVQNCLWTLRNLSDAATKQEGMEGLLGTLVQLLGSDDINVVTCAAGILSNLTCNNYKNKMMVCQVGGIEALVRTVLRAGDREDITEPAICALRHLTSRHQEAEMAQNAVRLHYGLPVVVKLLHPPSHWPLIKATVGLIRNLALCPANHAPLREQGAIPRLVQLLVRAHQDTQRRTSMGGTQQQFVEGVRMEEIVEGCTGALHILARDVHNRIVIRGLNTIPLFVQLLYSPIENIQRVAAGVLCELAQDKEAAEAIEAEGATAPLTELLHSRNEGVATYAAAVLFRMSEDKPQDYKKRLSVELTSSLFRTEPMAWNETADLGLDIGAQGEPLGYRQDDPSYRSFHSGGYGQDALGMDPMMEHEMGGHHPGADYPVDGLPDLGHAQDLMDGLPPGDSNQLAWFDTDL
Description: direct fluorescence polarisation. A general note: Fluorescence polarisation rises when a labelled molecule tumbles more slowly, as on binding a larger partner.

Entries after “also recorded” stand apart in the source; their conditions may differ. No end group written: not given here.

For `CC[C@H](C)[C@H](NC(=O)[C@H](Cc1c[nH]c2c(Br)cccc12)NC(=O)[C@H](CCC(=O)OC(C)(C)C)NC(=O)[C@@H]1CCCN1C(=O)[C@H](CC(=O)NC(c1ccccc1)(c1ccccc1)c1ccccc1)NC(=O)[C@H](CCC(=O)OC(C)(C)C)NC(C)=O)C(=O)N[C@@H](CC(C)C)C(=O)N[C@@H](CC(=O)OC(C)(C)C)C(=O)N[C@@H](CCCCNC(=O)c1ccc(B(O)O)cc1)C(=O)N[C@@H](Cc1cn(C(c2ccccc2)(c2ccccc2)c2ccccc2)cn1)C(=O)N[C@H](C(=O)N[C@@H](CCC(=O)NC(c1ccccc1)(c1ccccc1)c1ccccc1)C(=O)N[C@@H](CCCNC(=N)NS(=O)(=O)c1c(C)c(C)c2c(c1C)CC(C)(C)O2)C(=O)N[C@H](C(=O)N[C@@H](CCSC)C(N)=O)C(C)C)C(C)C`, the ring closure, overall yield in series [1] (28-membered ring) turned out to be 11%.
Turning to `CC[C@H](C)[C@H](NC(=O)[C@H](Cc1c[nH]c2c(Br)cccc12)NC(=O)[C@H](CCC(=O)OC(C)(C)C)NC(=O)[C@@H]1CCCN1C(=O)[C@H](CC(=O)NC(c1ccccc1)(c1ccccc1)c1ccccc1)NC(=O)[C@H](CCC(=O)OC(C)(C)C)NC(C)=O)C(=O)N[C@@H](CC(C)C)C(=O)N[C@@H](CC(=O)OC(C)(C)C)C(=O)N[C@@H](CCCNC(=O)c1ccc(B(O)O)cc1)C(=O)N[C@@H](Cc1cn(C(c2ccccc2)(c2ccccc2)c2ccccc2)cn1)C(=O)N[C@H](C(=O)N[C@@H](CCC(=O)NC(c1ccccc1)(c1ccccc1)c1ccccc1)C(=O)N[C@@H](CCCNC(=N)NS(=O)(=O)c1c(C)c(C)c2c(c1C)CC(C)(C)O2)C(=O)N[C@H](C(=O)N[C@@H](CCSC)C(N)=O)C(C)C)C(C)C`, in series [1] (27-membered ring), the ring closure, overall yield worked out at 8%.
`CC[C@H](C)[C@H](NC(=O)[C@H](Cc1c[nH]c2cc(Br)ccc12)NC(=O)[C@H](CCC(=O)OC(C)(C)C)NC(=O)[C@@H]1CCCN1C(=O)[C@H](CC(=O)NC(c1ccccc1)(c1ccccc1)c1ccccc1)NC(=O)[C@H](CCC(=O)OC(C)(C)C)NC(C)=O)C(=O)N[C@@H](CC(C)C)C(=O)N[C@@H](CC(=O)OC(C)(C)C)C(=O)N[C@@H](CCCNC(=O)c1ccc(B(O)O)cc1)C(=O)N[C@@H](Cc1cn(C(c2ccccc2)(c2ccccc2)c2ccccc2)cn1)C(=O)N[C@H](C(=O)N[C@@H](CCC(=O)NC(c1ccccc1)(c1ccccc1)c1ccccc1)C(=O)N[C@@H](CCCNC(=N)NS(=O)(=O)c1c(C)c(C)c2c(c1C)CC(C)(C)O2)C(=O)N[C@H](C(=O)N[C@@H](CCSC)C(N)=O)C(C)C)C(C)C` returned a ring closure, overall yield in series [1] (28-membered ring) of 8%.
The molecule Ac-ENPESILDEHVQRVM-NH2 showed a [θ]222 (deg cm2 dmol-1) of -42900. Also, the θ222 in series [2] was -4.29 mdeg. The MRE (deg cm2 dmol-1) in series [3] was -2860.
Take Ac-ENPEWILDKHVQRVM-NH2: the cleaved bond entry in series [4] is “Leu-Asp; also recorded: Lys-His; also recorded: Gln-Arg”.
With `CC[C@H](C)[C@H](NC(=O)[C@H](Cc1c[nH]c2c(Br)cccc12)NC(=O)[C@H](CCC(=O)OC(C)(C)C)NC(=O)[C@@H]1CCCN1C(=O)[C@H](CC(=O)NC(c1ccccc1)(c1ccccc1)c1ccccc1)NC(=O)[C@H](CCC(=O)OC(C)(C)C)NC(C)=O)C(=O)N[C@@H](CC(C)C)C(=O)N[C@@H](CC(=O)OC(C)(C)C)C(=O)N[C@@H](Cc1ccc(B2OC(C)(C)C(C)(C)O2)cc1)C(=O)N[C@@H](Cc1cn(C(c2ccccc2)(c2ccccc2)c2ccccc2)cn1)C(=O)N[C@H](C(=O)N[C@@H](CCC(=O)NC(c1ccccc1)(c1ccccc1)c1ccccc1)C(=O)N[C@@H](CCCNC(=N)NS(=O)(=O)c1c(C)c(C)c2c(c1C)CC(C)(C)O2)C(=O)N[C@H](C(=O)N[C@@H](CCSC)C(N)=O)C(C)C)C(C)C`, the ring closure, overall yield in series [1] (23-membered ring) is 3%.
On to `CC[C@H](C)[C@H](NC(=O)[C@H](Cc1c[nH]c2c(Br)cccc12)NC(=O)[C@H](CCC(=O)OC(C)(C)C)NC(=O)[C@@H]1CCCN1C(=O)[C@H](CC(=O)NC(c1ccccc1)(c1ccccc1)c1ccccc1)NC(=O)[C@H](CCC(=O)OC(C)(C)C)NC(C)=O)C(=O)N[C@@H](CC(C)C)C(=O)N[C@@H](CC(=O)OC(C)(C)C)C(=O)N[C@@H](CCCCNC(=O)CCc1ccc(B(O)O)cc1)C(=O)N[C@@H](Cc1cn(C(c2ccccc2)(c2ccccc2)c2ccccc2)cn1)C(=O)N[C@H](C(=O)N[C@@H](CCC(=O)NC(c1ccccc1)(c1ccccc1)c1ccccc1)C(=O)N[C@@H](CCCNC(=N)NS(=O)(=O)c1c(C)c(C)c2c(c1C)CC(C)(C)O2)C(=O)N[C@H](C(=O)N[C@@H](CCSC)C(N)=O)C(C)C)C(C)C`, for which the ring closure, overall yield in series [1] (30-membered ring) was 14%.
`CC[C@H](C)[C@H](NC(=O)[C@H](Cc1c[nH]c2cc(Br)ccc12)NC(=O)[C@H](CCC(=O)OC(C)(C)C)NC(=O)[C@@H]1CCCN1C(=O)[C@H](CC(=O)NC(c1ccccc1)(c1ccccc1)c1ccccc1)NC(=O)[C@H](CCC(=O)OC(C)(C)C)NC(C)=O)C(=O)N[C@@H](CC(C)C)C(=O)N[C@@H](CC(=O)OC(C)(C)C)C(=O)N[C@@H](CCCCNC(=O)c1ccc(B(O)O)cc1)C(=O)N[C@@H](Cc1cn(C(c2ccccc2)(c2ccccc2)c2ccccc2)cn1)C(=O)N[C@H](C(=O)N[C@@H](CCC(=O)NC(c1ccccc1)(c1ccccc1)c1ccccc1)C(=O)N[C@@H](CCCNC(=N)NS(=O)(=O)c1c(C)c(C)c2c(c1C)CC(C)(C)O2)C(=O)N[C@H](C(=O)N[C@@H](CCSC)C(N)=O)C(C)C)C(C)C` gave a ring closure, overall yield in series [1] (29-membered ring) of 10%.
For the molecule `CC[C@H](C)[C@H](NC(=O)[C@H](Cc1c[nH]c2cc(Br)ccc12)NC(=O)[C@H](CCC(=O)OC(C)(C)C)NC(=O)[C@@H]1CCCN1C(=O)[C@H](CC(=O)NC(c1ccccc1)(c1ccccc1)c1ccccc1)NC(=O)[C@H](CCC(=O)OC(C)(C)C)NC(C)=O)C(=O)N[C@@H](CC(C)C)C(=O)N[C@@H](CC(=O)OC(C)(C)C)C(=O)N[C@@H](CCNC(=O)c1ccc(B(O)O)cc1)C(=O)N[C@@H](Cc1cn(C(c2ccccc2)(c2ccccc2)c2ccccc2)cn1)C(=O)N[C@H](C(=O)N[C@@H](CCC(=O)NC(c1ccccc1)(c1ccccc1)c1ccccc1)C(=O)N[C@@H](CCCNC(=N)NS(=O)(=O)c1c(C)c(C)c2c(c1C)CC(C)(C)O2)C(=O)N[C@H](C(=O)N[C@@H](CCSC)C(N)=O)C(C)C)C(C)C`, in series [1] (27-membered ring), the ring closure, overall yield stood at 8%.
In series [1] (26-membered ring), `CC[C@H](C)[C@H](NC(=O)[C@H](Cc1c[nH]c2c(Br)cccc12)NC(=O)[C@H](CCC(=O)OC(C)(C)C)NC(=O)[C@@H]1CCCN1C(=O)[C@H](CC(=O)NC(c1ccccc1)(c1ccccc1)c1ccccc1)NC(=O)[C@H](CCC(=O)OC(C)(C)C)NC(C)=O)C(=O)N[C@@H](CC(C)C)C(=O)N[C@@H](CC(=O)OC(C)(C)C)C(=O)N[C@@H](CCNC(=O)c1ccc(B(O)O)cc1)C(=O)N[C@@H](Cc1cn(C(c2ccccc2)(c2ccccc2)c2ccccc2)cn1)C(=O)N[C@H](C(=O)N[C@@H](CCC(=O)NC(c1ccccc1)(c1ccccc1)c1ccccc1)C(=O)N[C@@H](CCCNC(=N)NS(=O)(=O)c1c(C)c(C)c2c(c1C)CC(C)(C)O2)C(=O)N[C@H](C(=O)N[C@@H](CCSC)C(N)=O)C(C)C)C(C)C` showed a ring closure, overall yield of 9%.
In turn, `CC[C@H](C)[C@H](NC(=O)[C@H](Cc1c[nH]c2cc(Br)ccc12)NC(=O)[C@H](CCC(=O)OC(C)(C)C)NC(=O)[C@@H]1CCCN1C(=O)[C@H](CC(=O)NC(c1ccccc1)(c1ccccc1)c1ccccc1)NC(=O)[C@H](CCC(=O)OC(C)(C)C)NC(C)=O)C(=O)N[C@@H](CC(C)C)C(=O)N[C@@H](CC(=O)OC(C)(C)C)C(=O)N[C@@H](Cc1ccc(B2OC(C)(C)C(C)(C)O2)cc1)C(=O)N[C@@H](Cc1cn(C(c2ccccc2)(c2ccccc2)c2ccccc2)cn1)C(=O)N[C@H](C(=O)N[C@@H](CCC(=O)NC(c1ccccc1)(c1ccccc1)c1ccccc1)C(=O)N[C@@H](CCCNC(=N)NS(=O)(=O)c1c(C)c(C)c2c(c1C)CC(C)(C)O2)C(=O)N[C@H](C(=O)N[C@@H](CCSC)C(N)=O)C(C)C)C(C)C` yielded a ring closure, overall yield in series [1] (24-membered ring) of 4%.
Take “Ac-Glu-Asn-Pro-Glu-Trp-Ile-Leu-Asp-Lys-His-Val-Gln-Arg-Val-Met-NH2 (Trp and Lys drawn as structures, side chains cross-linked by the 7-aryl-Trp staple)”: in series [4], the cleaved bond result is recorded as “Gln-Arg” and the not cleaved entry was “not hydrolysed after leucine within 120 min; also recorded: not hydrolysed after lysine within 120 min”.
For orientation: Kd means the concentration at which binding is half-saturated. The molecule PESILDEHVQRVLRT (also: FITC label, site not given here) [fAxWt (FITC-labelled axin CBD peptide) 467-481] displayed a Kd in series [5] of 1190 nM.

Source of the values: paper PMC8744458 (Beilstein Journal of Organic Chemistry, 2022).
